Measured values reported in patent US20050085557A1, “Therapeutic procedures” (priority 2003, published 2005).

Legend:
J774.1 macrophages = experiment: Lipid-loading assay (foam cell formation); assay type: cell-based, murine; details: LDL 100 μg/mL with compound (20 μM), 72 h, unactivated J774.1 macrophages
Description: Macrophages were first grown for 24 h in RPMI-1640 containing 10% fetal bovine serum and then incubated for 72 h in the same media containing LDL (100 μg/mL). Cells were fixed with 4% formaldehyde and stained with hematoxylin and oil red O such that lipid granules stained a darker red color. Magnification×100.
J774.1 macrophages were grown for 24 h in RPMI-1640 containing 10% fetal bovine serum. […] Cells were fixed with 4% formaldehyde and stained with hematoxylin and oil red O such that lipid granules stained a darker red color. Magnification×100.
Lipid-loading assay (foam cellformation). J774.1 macrophages were incubated in ATCC-recommended media containing 10% fetal bovine serum under a controlled atmosphere of 5 or 7% CO2 at 37° C., in 8-well chamber slides. […] At termination, cells were washed twice with PBS (pH 7.4). The cells were then fixed with 6% (v/v) paraformaldehyde in PBS for 30 minutes, rinsed with propylene glycol for 2 minutes and lipids were stained with 5 mg/ml Oil Red O for 8 minutes. The cells were counterstained with Harris' hematoxylin for 45 seconds, and background staining was removed with […] followed by washing once in PBS and once in tap water. […] The number of lipid-laden cells was scored out of a total of at least 100 cells counted in a single field in each slide, and expressed as a percentage of total cells. […]

LDL / apoB-100 = target: T1, LDL / apoB-100 (Homo sapiens, UniProt P04114); experiment: Circular dichroism of LDL secondary structure; assay type: biochemical; details: LDL 100 μg/ml, compound 10 μM, PBS pH 7.4, 37° C., 48 h; for random coil of LDL after incubation (circular dichroism): normal LDL 27±2%; for a helical structure of LDL after incubation (circular dichroism): normal LDL ~40±2%
T1 construct: Circular dichroism (CD) spectra of LDL (100 μg/ml)
Description: Circular dichroism. […] Spectra were recorded in the peptidic range (200-260 nm). To increase the signal-to-noise ratio, multiple spectra (three) were averaged for each measurement.

[1] = Aldolization of ketoaldehyde 4a with amino acids (1H NMR); assay type: physicochemical; details: DMSO-d6 (800 μl) and D2O (80 μl) without amino acid
Description: Aldolization of ketoaldehyde 4a with amino acids. […] To this solution was added 1 equivalent of either: a) L-proline, […] b) glycine, c) L-lysine hydrochloride or d) L-lysine ethyl ester dihydrochloride. At time points the samples were analyzed by ^1H NMR.

[2] = Aldolization of secoketoaldehyde 4a with atherosclerotic artery and blood fractions (1H NMR); assay type: in vitro ADME, human; details: lyophilized PBS
Description: Aldolization of secoketoaldehyde 4a with atherosclerotic artery and blood fractions. […] To this solution was added either a) atherosclerotic artery (2.1 mg) that had been homogenized in PBS (1 ml) in a tissue homogenizer and then lyophilized to dryness, b) lyophilized human blood (1 ml), c) lyophilized human plasma (1 ml) or d) PBS lyophilized (1 ml). At time points samples were removed and analyzed by ^1H NMR vide supra.

[3] = test system: human B-lymphocyte (WI-L2) cell line; experiment: Cytotoxicity assay (LDH release), WI-L2; assay type: cell-based; details: FIG. 6A; in this concentration range (0-100 μM)
Description: Cytotoxicity assays. WI-L2 human B-lymphocyte line, HAAE-1 human abdominal aortic endothelial line, MH-S murine alveolar macrophage line, and J774A.1 murine tissue macrophage line were obtained from the ATCC. Human aortic endothelial cells (HAEC) and human vascular smooth muscle cells (VSMS) were obtained from Cambrex Bio Science. Jurkat E6-IT-lymphocytes were kindly provided by Dr. J. Kaye (The Scripps Research Institute). Cells were cultured in ATCC-recommended media with 10% fetal calf serum. Cells were incubated in a controlled atmosphere at 37° C., with 5 or 7% CO2. For lactate dehydrogenase (LDH) release assays, adherent cells were harvested either by addition of 0.05% trypsin/EDTA or by scraping. The cells obtained were seeded onto 96-well microtiter plates (25,000 cells/well) and allowed to recover for 24-48 h. […] Cytotoxicity was then determined by measuring lactate dehydrogenase (LDH) release from cells in culture. […] 100% Cytotoxicity was defined as the maximum amount of LDH released by dead cells as shown by trypan blue exclusion, or the highest amount of LDH detected upon lysis of cells by 0.9% Triton X-100. The IC50 values were determined by comparison of the raw duplicate data for concentration versus cytotoxicity (%) to non-linear regression analysis (Hill plot) using Graphpad v3.0 software for Macintosh. […]

[4] = test system: T-lymphocyte cell line (Jurkat E6.1); experiment: Cytotoxicity assay (LDH release), Jurkat E6.1; assay type: cell-based; details: FIG. 6B; in this concentration range (0-100 μM)
Description: Cytotoxicity assays. WI-L2 human B-lymphocyte line, HAAE-1 human abdominal aortic endothelial line, MH-S murine alveolar macrophage line, and J774A.1 murine tissue macrophage line were obtained from the ATCC. Human aortic endothelial cells (HAEC) and human vascular smooth muscle cells (VSMS) were obtained from Cambrex Bio Science. […] Cells were cultured in ATCC-recommended media with 10% fetal calf serum. Cells were incubated in a controlled atmosphere at 37° C., with 5 or 7% CO2. For lactate dehydrogenase (LDH) release assays, adherent cells were harvested either by addition of 0.05% trypsin/EDTA or by scraping. The cells obtained were seeded onto 96-well microtiter plates (25,000 cells/well) and allowed to recover for 24-48 h. Cells were washed gently and media replaced with fresh media containing 5% fetal calf serum. […] Cytotoxicity was then determined by measuring lactate dehydrogenase (LDH) release from cells in culture. […] 100% Cytotoxicity was defined as the maximum amount of LDH released by dead cells as shown by trypan blue exclusion, or the highest amount of LDH detected upon lysis of cells by 0.9% Triton X-100. The IC50 values were determined by comparison of the raw duplicate data for concentration versus cytotoxicity (%) to non-linear regression analysis (Hill plot) using Graphpad v3.0 software for Macintosh. […]

T1 sequence (P04114 28-4563, species assumed): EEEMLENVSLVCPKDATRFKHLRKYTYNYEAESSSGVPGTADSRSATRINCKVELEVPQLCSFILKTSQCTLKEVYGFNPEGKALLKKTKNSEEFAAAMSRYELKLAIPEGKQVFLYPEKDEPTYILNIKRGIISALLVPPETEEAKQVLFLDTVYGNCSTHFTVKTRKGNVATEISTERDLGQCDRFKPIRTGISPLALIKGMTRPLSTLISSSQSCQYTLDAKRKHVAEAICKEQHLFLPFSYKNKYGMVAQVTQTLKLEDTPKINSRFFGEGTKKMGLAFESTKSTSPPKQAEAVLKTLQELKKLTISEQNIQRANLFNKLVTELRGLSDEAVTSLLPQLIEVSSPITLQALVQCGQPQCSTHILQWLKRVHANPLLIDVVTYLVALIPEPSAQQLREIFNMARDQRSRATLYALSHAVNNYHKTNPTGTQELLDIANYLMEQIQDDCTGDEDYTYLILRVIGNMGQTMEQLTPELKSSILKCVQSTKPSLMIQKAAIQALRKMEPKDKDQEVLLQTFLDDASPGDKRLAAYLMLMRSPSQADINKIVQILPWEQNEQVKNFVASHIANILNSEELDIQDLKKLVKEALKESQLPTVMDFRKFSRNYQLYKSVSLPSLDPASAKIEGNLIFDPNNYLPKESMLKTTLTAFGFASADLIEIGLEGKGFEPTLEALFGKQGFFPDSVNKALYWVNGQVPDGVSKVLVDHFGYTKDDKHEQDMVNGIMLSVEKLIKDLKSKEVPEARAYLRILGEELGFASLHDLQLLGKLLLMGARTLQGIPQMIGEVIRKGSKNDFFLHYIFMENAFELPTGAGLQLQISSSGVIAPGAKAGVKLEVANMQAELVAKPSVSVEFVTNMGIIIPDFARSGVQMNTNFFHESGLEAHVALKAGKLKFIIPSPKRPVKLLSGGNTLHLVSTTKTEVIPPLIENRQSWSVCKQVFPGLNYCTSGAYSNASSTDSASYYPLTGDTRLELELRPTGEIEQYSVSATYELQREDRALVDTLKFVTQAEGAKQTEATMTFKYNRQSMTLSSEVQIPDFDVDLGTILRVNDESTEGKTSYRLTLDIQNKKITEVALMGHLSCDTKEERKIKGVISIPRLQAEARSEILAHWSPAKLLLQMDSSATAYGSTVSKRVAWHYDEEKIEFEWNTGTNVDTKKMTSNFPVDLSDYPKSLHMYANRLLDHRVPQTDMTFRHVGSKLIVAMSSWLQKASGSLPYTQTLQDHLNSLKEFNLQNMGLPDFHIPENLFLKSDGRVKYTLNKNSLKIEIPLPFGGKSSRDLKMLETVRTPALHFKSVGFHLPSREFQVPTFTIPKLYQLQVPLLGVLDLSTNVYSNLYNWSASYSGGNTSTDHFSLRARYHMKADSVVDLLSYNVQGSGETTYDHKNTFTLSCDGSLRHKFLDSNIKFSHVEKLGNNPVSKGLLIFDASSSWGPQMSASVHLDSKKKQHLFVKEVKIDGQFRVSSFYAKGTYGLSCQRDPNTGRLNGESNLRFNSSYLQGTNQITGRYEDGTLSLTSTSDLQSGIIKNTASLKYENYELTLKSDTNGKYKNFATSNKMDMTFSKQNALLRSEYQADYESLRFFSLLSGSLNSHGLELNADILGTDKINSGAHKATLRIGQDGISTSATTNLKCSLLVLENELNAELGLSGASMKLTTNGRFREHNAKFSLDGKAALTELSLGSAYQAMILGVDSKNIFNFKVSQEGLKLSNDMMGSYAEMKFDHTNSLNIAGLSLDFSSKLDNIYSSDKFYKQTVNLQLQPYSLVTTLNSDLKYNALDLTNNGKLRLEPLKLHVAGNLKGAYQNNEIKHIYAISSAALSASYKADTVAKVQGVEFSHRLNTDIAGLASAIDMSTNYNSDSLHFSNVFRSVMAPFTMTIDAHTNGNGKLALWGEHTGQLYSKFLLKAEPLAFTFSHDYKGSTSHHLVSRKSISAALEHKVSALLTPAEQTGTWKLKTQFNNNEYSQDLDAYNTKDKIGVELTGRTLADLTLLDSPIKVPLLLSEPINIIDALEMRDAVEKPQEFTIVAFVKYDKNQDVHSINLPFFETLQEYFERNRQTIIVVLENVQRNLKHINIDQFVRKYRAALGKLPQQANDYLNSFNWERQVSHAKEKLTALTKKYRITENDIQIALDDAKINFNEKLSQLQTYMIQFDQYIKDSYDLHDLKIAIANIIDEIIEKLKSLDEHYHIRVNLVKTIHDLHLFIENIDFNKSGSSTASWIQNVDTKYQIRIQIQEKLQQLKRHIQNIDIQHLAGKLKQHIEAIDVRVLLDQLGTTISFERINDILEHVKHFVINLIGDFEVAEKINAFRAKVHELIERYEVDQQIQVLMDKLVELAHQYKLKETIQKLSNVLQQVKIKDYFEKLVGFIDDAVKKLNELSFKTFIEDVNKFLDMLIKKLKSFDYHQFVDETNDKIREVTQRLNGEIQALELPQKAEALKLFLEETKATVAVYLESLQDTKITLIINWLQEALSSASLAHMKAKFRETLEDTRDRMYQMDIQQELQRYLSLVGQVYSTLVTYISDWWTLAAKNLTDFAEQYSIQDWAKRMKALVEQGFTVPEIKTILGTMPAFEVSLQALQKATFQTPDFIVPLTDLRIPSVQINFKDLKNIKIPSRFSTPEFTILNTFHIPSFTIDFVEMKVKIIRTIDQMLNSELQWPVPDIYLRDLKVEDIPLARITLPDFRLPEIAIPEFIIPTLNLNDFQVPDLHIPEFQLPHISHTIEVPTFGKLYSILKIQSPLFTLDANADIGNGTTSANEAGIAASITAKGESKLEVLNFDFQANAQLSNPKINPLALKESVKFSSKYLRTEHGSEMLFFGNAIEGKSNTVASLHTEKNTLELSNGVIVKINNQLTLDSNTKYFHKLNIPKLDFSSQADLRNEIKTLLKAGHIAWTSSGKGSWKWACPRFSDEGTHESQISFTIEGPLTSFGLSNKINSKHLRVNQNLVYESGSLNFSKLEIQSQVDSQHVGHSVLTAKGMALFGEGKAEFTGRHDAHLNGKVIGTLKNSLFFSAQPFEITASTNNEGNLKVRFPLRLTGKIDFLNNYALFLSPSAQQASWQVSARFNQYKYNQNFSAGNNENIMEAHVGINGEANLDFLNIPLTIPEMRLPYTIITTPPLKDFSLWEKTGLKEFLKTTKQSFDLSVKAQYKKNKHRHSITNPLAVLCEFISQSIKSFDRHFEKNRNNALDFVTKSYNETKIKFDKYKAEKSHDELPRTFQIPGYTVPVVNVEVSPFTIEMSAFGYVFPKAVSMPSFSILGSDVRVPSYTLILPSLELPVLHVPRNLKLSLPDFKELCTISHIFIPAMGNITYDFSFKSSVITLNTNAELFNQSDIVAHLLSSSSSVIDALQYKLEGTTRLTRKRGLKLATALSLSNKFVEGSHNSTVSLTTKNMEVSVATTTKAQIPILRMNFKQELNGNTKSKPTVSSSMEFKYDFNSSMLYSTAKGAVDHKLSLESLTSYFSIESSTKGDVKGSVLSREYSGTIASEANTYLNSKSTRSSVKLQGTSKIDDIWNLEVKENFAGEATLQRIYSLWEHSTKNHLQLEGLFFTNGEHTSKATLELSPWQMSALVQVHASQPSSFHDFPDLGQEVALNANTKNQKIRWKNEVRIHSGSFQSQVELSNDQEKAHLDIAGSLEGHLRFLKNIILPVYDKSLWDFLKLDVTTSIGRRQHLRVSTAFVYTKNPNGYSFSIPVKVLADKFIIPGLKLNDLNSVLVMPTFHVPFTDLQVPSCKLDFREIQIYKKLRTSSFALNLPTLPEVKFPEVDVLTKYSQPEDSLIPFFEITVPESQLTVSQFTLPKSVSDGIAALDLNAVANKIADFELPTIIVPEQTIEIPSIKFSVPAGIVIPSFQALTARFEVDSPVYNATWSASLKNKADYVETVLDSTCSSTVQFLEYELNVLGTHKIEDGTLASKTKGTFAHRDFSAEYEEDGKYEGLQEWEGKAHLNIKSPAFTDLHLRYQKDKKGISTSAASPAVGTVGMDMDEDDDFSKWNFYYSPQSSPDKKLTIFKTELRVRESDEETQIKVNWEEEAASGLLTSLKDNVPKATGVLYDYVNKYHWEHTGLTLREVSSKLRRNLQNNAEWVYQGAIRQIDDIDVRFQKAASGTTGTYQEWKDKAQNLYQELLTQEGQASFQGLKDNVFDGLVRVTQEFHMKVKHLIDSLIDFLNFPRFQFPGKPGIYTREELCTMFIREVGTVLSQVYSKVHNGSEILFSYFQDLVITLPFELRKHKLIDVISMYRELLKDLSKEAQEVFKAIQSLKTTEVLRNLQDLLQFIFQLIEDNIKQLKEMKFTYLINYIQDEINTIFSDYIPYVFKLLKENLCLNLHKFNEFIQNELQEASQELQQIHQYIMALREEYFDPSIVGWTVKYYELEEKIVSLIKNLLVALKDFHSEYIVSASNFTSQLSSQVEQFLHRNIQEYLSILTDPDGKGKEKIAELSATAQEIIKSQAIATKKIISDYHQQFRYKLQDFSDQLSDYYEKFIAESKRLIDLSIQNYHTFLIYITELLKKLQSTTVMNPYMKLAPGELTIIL

Structure (SMILES): CC(C)CCC[C@@H](C)[C@H]1CCC2C(CC=O)C([C@@]3(C)CC[C@H](O)CC3=O)CC[C@@]21C (stereo partly drawn) [4a, 3β-Hydroxy-5-oxo-5,6-secocholestan-6-al]
- lipid-loading of macrophages / foam cell formation (J774.1 macrophages): foam cells began to appear
- random coil of LDL after incubation (circular dichroism) (LDL / apoB-100): ~39±2%
- a helical structure of LDL after incubation (circular dichroism) (LDL / apoB-100): ~23±5%
- aldolization of 4a (background) [1]: no aldolization
- aldolization of 4a (background) [2]: no aldolization

Structure (SMILES): CC(C)CCC[C@@H](C)[C@H]1CCC2C3C(CC[C@@]21C)[C@@]1(C)CC[C@H](O)C[C@@]1(O)[C@@H]3C=O (stereo partly drawn) [5a, 3β-Hydroxy-5β-hydroxy-B-norcholestane-6β-carboxaldehyde]
- lipid-loading of macrophages / foam cell formation (J774.1 macrophages): foam cells began to appear
- random coil of LDL after incubation (circular dichroism) (LDL / apoB-100): 32±+4%
- a helical structure of LDL after incubation (circular dichroism) (LDL / apoB-100): ~20±2%

Structure (SMILES): CC(C)CCC[C@@H](C)[C@H]1CC[C@H]2[C@@H]3CC=C4C[C@@H](O)CC[C@]4(C)[C@H]3CC[C@]12C [compound 3, cholesterol]
- cytotoxicity against B-cell (WI-L2) cell line [3]: No cytotoxicity
- cytotoxicity against T-cell (Jurkat) cell line [4]: No cytotoxicity
